Test results reported in US10308629B2, “1H-pyrrol-3-amines” (BAYER PHARMA AKTIENGESELLSCHAFT, priority 2015, dated 2019).

These compounds were tested against (recombinant) catalytic domain of human Bub1 (amino acids 704-1085) (Homo sapiens (Human), UniProt O43683) (assay: Bub1 kinase assay (TR-FRET)). Conditions: ATP 10 μM, peptide substrate 1 μM, 60 min at 22° C., read-out: Inhibition of Bub1 kinase IC50.
Format: biochemical
Excerpt: Bub1-inhibitory activities of compounds described in the present invention were quantified using a time-resolved fluorescence energy transfer (TR-FRET) kinase assay which measures phosphorylation of the synthetic peptide Biotin-Ahx-VLLPKKSFAEPG (SEQ ID No. 1) (C-terminus in amide form), purchased from e.g. Biosyntan (Berlin, Germany) by the (recombinant) catalytic domain of human Bub1 (amino acids 704-1085), expressed in Hi5 insect cells with an N-terminal His6-tag and purified by affinity-(Ni-NTA) and size exclusion chromatography.
In a typical assay 11 different concentrations of each compound (0.1 nM, 0.33 nM, 1.1 nM, 3.8 nM, 13 nM, 44 nM, 0.15 μM, 0.51 μM, 1.7 μM, 5.9 μM and 20 μM) were tested in duplicate within the same microtiter plate. To this end, 100-fold concentrated compound solutions (in DMSO) were previously prepared by serial dilution (1:3.4) of 2 mM stocks in a clear low volume 384-well source microtiter plate (Greiner Bio-One, Frickenhausen, Germany), from which 50 nl of compounds were transferred into a black low volume test microtiter plate from the same supplier. Subsequently, 2 μL of Bub1 (the final concentration of Bub1 was adjusted depending on the activity of the enzyme lot in order to be within the linear dynamic range of the assay: typically ˜200 ng/mL were used) in aqueous assay buffer [50 mM Tris/HCl pH 7.5, 10 mM magnesium chloride (MgCl2), 200 mM potassium chloride (KCl), 1.0 mM dithiothreitol (DTT), 0.1 mM sodium ortho-vanadate, 1% (v/v) glycerol, 0.01% (w/v) bovine serum albumine (BSA), 0.005% (v/v) Trition X-100 (Sigma), 1× Complete EDTA-free protease inhibitor mixture (Roche)] were added to the compounds in the test plate and the mixture was incubated for 15 min at 22° C. to allow pre-equilibration of the putative enzyme-inhibitor complexes before the start of the kinase reaction, which was initiated by the addition of 3 μL 1.67-fold concentrated solution (in assay buffer) of adenosine-tri-phosphate (ATP, 10 μM final concentration) and peptide substrate (1 μM final concentration). The resulting mixture (5 μL final volume) was incubated at 22° C. during 60 min. and the reaction w as stopped by the addition of 5 μL of an aqueous EDTA-solution (50 mM EDTA, in 100 mM HEPES pH 7.5 and 0.2% (w/v) bovine serum albumin) which also contained the TR-FRET detection reagents (0.2 μM streptavidin-XL665 [Cisbio Bioassays, Codolet, France] and 1 nM anti-phosho-Serine antibody [Merck Millipore, cat. #35-002] and 0.4 nM LANCE EU-W1024 labeled anti-mouse IgG antibody [Perkin-Elmer, product no. AD0077, alternatively a Terbium-cryptate-labeled anti-mouse IgG antibody from Cisbio Bioassays can be used]). The stopped reaction mixture was further incubated 1 h at 22° C. in order to allow the formation of complexes between peptides and detection reagents. Subsequently, the amount of product was evaluated by measurement of the resonance energy transfer from the Eu-chelate-antibody complex recognizing the Phosphoserine residue to the streptavidin-XL665 bound to the biotin moiety of the peptide. To this end, the fluorescence emissions at 620 nm and 665 nm after excitation at 330-350 nm were measured in a TR-FRET plate reader, e.g. a Rubystar or Pherastar (both from BMG Labtechnologies, Offenburg, Germany) or a Viewlux (Perkin-Elmer) and the ratio of the emissions (665 nm/622 nm) was taken as indicator for the amount of phosphorylated substrate. The data were normalised using two sets of control wells for high−(=enzyme reaction without inhibitor=0%=Minimum inhibition) and low−(=all assay components without enzyme=100%=Maximum inhibition) Bub1 activity. IC50 values were calculated by fitting the normalized inhibition data to a 4-parameter logistic equation (Minimum, Maximum, IC50, Hill; Y=Max+(Min−Max)/(1+(X/IC50)Hill)).

Chain of (recombinant) catalytic domain of human Bub1 (amino acids 704-1085) (O43683 704-1085): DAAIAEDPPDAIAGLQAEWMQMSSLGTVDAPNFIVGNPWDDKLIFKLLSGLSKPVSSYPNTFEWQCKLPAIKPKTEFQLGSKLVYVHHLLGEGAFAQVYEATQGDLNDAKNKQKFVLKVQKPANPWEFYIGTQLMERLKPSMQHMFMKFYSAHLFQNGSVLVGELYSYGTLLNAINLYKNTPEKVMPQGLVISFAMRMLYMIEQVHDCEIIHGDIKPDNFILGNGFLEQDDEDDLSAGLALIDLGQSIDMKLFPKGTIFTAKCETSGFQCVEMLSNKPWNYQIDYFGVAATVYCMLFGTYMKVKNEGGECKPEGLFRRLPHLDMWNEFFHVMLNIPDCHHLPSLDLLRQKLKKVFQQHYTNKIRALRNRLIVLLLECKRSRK

Compound | IC50 [nM]
C[C@@]12C[C@@H]1C(=O)c1c([nH]c(-c3ccnc(NC(=O)C4CC4)c3)c1Nc1ccccc1)C2=O (relative stereo) [Example 32, N-4-[rel-(4aS,5aR)-5a-Methyl-4,6-dioxo-3-(phenylamino)-1,4,4a,5,5a,6-hexahydrocyclopropa[f]indol-2-yl]pyridin-2-ylcyclopropanecarboxamide] | 30
CC1(C)[C@@H]2C[C@H]1C(=O)c1c2[nH]c(-c2ccncc2F)c1Nc1ccccc1 (relative stereo) [Example 10, rel-(5R,7S)-2-(3-Fluoropyridin-4-yl)-6,6-dimethyl-3-(phenylamino)-1,5,6,7-tetrahydro-4H-5,7-methanoindol-4-one] | 35
COC(=O)Nc1cc(-c2[nH]c3c(c2Nc2ccccc2)C(=O)[C@@H]2C[C@H]3C2(C)C)ccn1 (relative stereo) [Example 7, methyl 4-[rel-(5R,7S)-6,6-Dimethyl-4-oxo-3-(phenylamino)-4,5,6,7-tetrahydro-1H-5,7-methanoindol-2-yl]pyridin-2-ylcarbamate] | 68
2-Fluoro-2-methyl-N-4-[[(4aR,5aR) or (4aS,5aS)]-5a-methyl-4-oxo-3-(phenylamino)-1,4,4a,5,5a,6-hexahydrocyclopropa[f]indol-2-yl]pyridin-2-ylpropanamide [Example 41] | 53
(5R,7S or 5S,7R)-2-(2-Aminopyridin-4-yl)-6,6-dimethyl-3-(phenylamino)-1,5,6,7-tetrahydro-4H-5,7-methanoindol-4-one [Example 3] | 648
(1S,2S)-2-Fluoro-N-4-[[(4aR,5aR) or (4aS,5aS)]-5a-methyl-4-oxo-3-(phenylamino)-1,4,4a,5,5a,6-hexahydrocyclopropa[f]indol-2-yl]pyridin-2-ylcyclopropanecarboxamide [Example 37] | 11
Cc1ccc(=O)c2c(Nc3ccccc3)c(-c3ccnc(N)c3)[nH]c2c1 [Example 23, 2-(2-Aminopyridin-4-yl)-7-methyl-3-(phenylamino)cyclohepta[b]pyrrol-4(1H)-one] | 26
Cn1ccc(C(=O)Nc2cc(-c3[nH]c4c(c3Nc3ccccc3)C(=O)[C@H]3C[C@@]3(C)C4=O)ccn2)n1 (relative stereo) [Example 34, 1-Methyl-N-4-[rel-(4aS,5aR)-5a-methyl-4,6-dioxo-3-(phenylamino)-1,4,4a,5,5a,6-hexahydrocyclopropa[f]indol-2-yl]pyridin-2-yl-1H-pyrazole-3-carboxamide] | 35
N-4-[(4aR,5aR or 4aS,5aS)-5a-Methyl-4-oxo-3-(phenylamino)-1,4,4a,5,5a,6-hexahydrocyclopropa[f]indol-2-yl]pyridin-2-ylacetamide [Example 19] | 8
N-{4-[[(4aR,5aR) or (4aS,5aS)]-3-Anilino-5a-methyl-4-oxo-1,4,4a,5,5a,6-hexahydrocyclopropa[f]indol-2-yl]pyridin-2-yl}-2,6-difluorobenzamide [Example 46] | 4
COc1cc(C(=O)Nc2cc(-c3[nH]c4c(c3Nc3ccccc3)C(=O)[C@H]3C[C@@]3(C)C4=O)ccn2)ccc1F (relative stereo) [Example 35, 4-Fluoro-3-methoxy-N-4-[rel-(4aS,5aR)-5a-methyl-4,6-dioxo-3-(phenylamino)-1,4,4a,5,5a,6-hexahydrocyclopropa[f]indol-2-yl]pyridin-2-ylbenzamide] | 71
CC(=O)Nc1cc(-c2[nH]c3c(c2Nc2ccccc2)C(=O)[C@@H]2C[C@H]3C2(C)C)ccn1 (relative stereo) [Example 5, N-4-[rel-(5R,7S)-6,6-Dimethyl-4-oxo-3-(phenylamino)-4,5,6,7-tetrahydro-1H-5,7-methanoindol-2-yl]pyridin-2-ylacetamide] | 115
CC1(C)[C@@H]2C[C@H]1C(=O)c1c2[nH]c(-c2ccncc2)c1Nc1ccccc1 (relative stereo) [Example 1, rel-(5R,7S)-6,6-Dimethyl-3-(phenylamino)-2-(pyridin-4-yl)-1,5,6,7-tetrahydro-4H-5,7-methanoindol-4-one] | 146
CC1(C)[C@@H]2C[C@H]1C(=O)c1c2[nH]c(-c2ccnc(NC(=O)NC3CC3)c2)c1Nc1ccccc1 (relative stereo) [Example 9, 1-cyclopropyl-3-4-[rel-(5R,7S)-6,6-Dimethyl-4-oxo-3-(phenylamino)-4,5,6,7-tetrahydro-1H-5,7-methanoindol-2-yl]pyridin-2-ylurea] | 240

Other lines, results leading:

IC50 [nM] | Compound
4 | (4aS,5aS or 4aR,5aR)-3-(Phenylamino)-2-(pyridin-4-yl)-4a,5,5a,6-tetrahydrocyclopropa[f]indol-4(1H)-one [Example 14]
5 | (4aR,5aR or 4aS,5aS)-5a-Methyl-3-(phenylamino)-2-(pyridin-4-yl)-4a,5,5a,6-tetrahydrocyclopropa[f]indol-4(1H)-one [Example 17]
22 | 1-Methyl-N-4-[[(4aR,5aR) or (4aS,5aS)]-5a-methyl-4-oxo-3-(phenylamino)-1,4,4a,5,5a,6-hexahydrocyclopropa[f]indol-2-yl]pyridin-2-yl-1H-pyrazole-5-carboxamide [Example 43]
6 | O=C1CCCCc2[nH]c(-c3ccncc3)c(Nc3ccccc3)c21 [Example 22, 3-(Phenylamino)-2-(pyridin-4-yl)-5,6,7,8-tetrahydrocyclohepta[b]pyrrol-4(1H)-one]
7 | O=C1c2c([nH]c(-c3ccncc3)c2Nc2ccccc2)C[C@H]2C[C@@H]12 (relative stereo) [Example 12, rel-(4aR,5aR)-3-(Phenylamino)-2-(pyridin-4-yl)-4a,5,5a,6-tetrahydrocyclopropa[f]indol-4(1H)-one]
11 | 1-Methyl-N-4-[[(4aS,5aS) or (4aR,5aR)]-5a-methyl-4-oxo-3-(phenylamino)-1,4,4a,5,5a,6-hexahydrocyclopropa[f]indol-2-yl]pyridin-2-yl-1H-pyrazole-5-carboxamide [Example 42]
6 | CC(=O)Nc1cc(-c2[nH]c3c(c2Nc2ccccc2)C(=O)[C@@H]2C[C@@H]2C3)ccn1 (relative stereo) [Example 15, rel-(4aR,5aR)-N-4-[4-oxo-3-(Phenylamino)-1,4,4a,5,5a,6-hexahydrocyclopropa[f]indol-2-yl]pyridin-2-ylacetamide]
13 | N-{4-[[(4aR,5aR) or (4aS,5aS)]-3-anilino-5a-methyl-4-oxo-1,4,4a,5,5a,6-hexahydrocyclopropa[f]indol-2-yl]pyridin-2-yl}-3-fluoro-4-methoxybenzamide [Example 50]
18 | N-4-[[(4aR,5aR) or (4aS,5aS)]-5a-Methyl-4-oxo-3-(phenylamino)-1,4,4a,5,5a,6-hexahydrocyclopropa[f]indol-2-yl]pyridin-2-yl-1H-pyrazole-3-carboxamide [Example 45]
7 | N-{4-[[(4aS,5aS) or (4aR,5aR)]-3-anilino-5a-methyl-4-oxo-1,4,4a,5,5a,6-hexahydrocyclopropa[f]indol-2-yl]pyridin-2-yl}-2,6-difluorobenzamide [Example 47]
5 | N-4-[[(4aS,5aS) or (4aR,5aR)]-5a-Methyl-4-oxo-3-(phenylamino)-1,4,4a,5,5a,6-hexahydrocyclopropa[f]indol-2-yl]pyridin-2-yl-1H-pyrazole-3-carboxamide [Example 44]
5 | N-4-[[(7R) or (7S)]-7-Methyl-4-oxo-3-(phenylamino)-1,4,5,6,7,8-hexahydrocyclohepta[b]pyrrol-2-yl]pyridin-2-ylacetamide [Example 39]
